# Structures can show the parent of a compound that is named as a salt. Where two headings read alike, the source gives them in different places.
# Tests used:
# human KDAC8 [1] = molecular target: T1, human KDAC8 (Homo sapiens, UniProt Q9BY41); experiment: Michaelis-Menten kinetics with the continuous KDAC8 assay; format: biochemical; design: full-length human KDAC8 was produced in E. coli BL21 (DE3); His6-SUMO (N, cleaved yes); made in house; host or cells: E. coli BL21 (DE3), pET14b vector; conditions: n = 3
# T1 sequence (Q9BY41 1-377): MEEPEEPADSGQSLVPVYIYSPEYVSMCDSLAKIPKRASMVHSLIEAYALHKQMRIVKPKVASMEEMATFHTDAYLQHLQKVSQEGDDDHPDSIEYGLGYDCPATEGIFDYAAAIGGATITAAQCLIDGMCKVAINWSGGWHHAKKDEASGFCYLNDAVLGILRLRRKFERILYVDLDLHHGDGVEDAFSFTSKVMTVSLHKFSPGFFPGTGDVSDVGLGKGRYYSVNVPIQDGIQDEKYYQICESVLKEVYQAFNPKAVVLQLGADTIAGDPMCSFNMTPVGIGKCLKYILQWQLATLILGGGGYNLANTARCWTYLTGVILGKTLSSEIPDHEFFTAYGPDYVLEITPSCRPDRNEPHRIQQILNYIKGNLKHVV
# Procedure: The measurements were carried out in a black 96-well microtiter plate (Greiner) at 30°C in assay buffer (see above). A serial two-fold dilution ranging from 50 µmol/L substrate, Boc-Lys(TFA)-AMC (Bachem), to 780 nmol/L, was prepared in an assay buffer containing 0.1 mg/mL trypsin. The enzymatic reaction was initiated by the addition of 10 nmol/L KDAC8. […] The data points were plotted against time and blank corrected. For the determination of Michaelis-Menten parameters, a linear regression analysis of the initial slope (vi) of each curve was performed. Slopes were transformed into rates of AMC product formation using a calibration curve with different AMC concentrations. The obtained enzyme conversion rates were plotted against the respective substrate concentration and fitted to the Michaelis-Menten function using GraphPad Prism software. The turnover number (kcat) was calculated as
# where vi is the substrate conversion rate and E is the enzyme concentration. All solutions were pre-incubated at 30°C.
# human KDAC8 [2] = molecular target: T1, human KDAC8; experiment: Continuous (one-step) KDAC8 enzyme activity assay, IC50 determination; format: biochemical; design: full-length human KDAC8 was produced in E. coli BL21 (DE3); His6-SUMO (N, cleaved yes); made in house; host or cells: E. coli BL21 (DE3), pET14b vector; conditions: for IC50: 10 nmol/L KDAC8, 60 min pre-incubation at 30°C, 20 µmol/L Boc-Lys(TFA)-AMC, 0.1 mg/mL trypsin, mean ± SD, n = 3; for Inhibition mode: classification of mode of action on KDAC8; for Time-dependence of IC50 values: pre-incubation times 5 min to 60 min, 100 nmol/L KDAC8
# human KDAC8 [3] = molecular target: T1, human KDAC8; experiment: Thermal shift assay (SYPRO orange melting curves); format: binding; design: full-length human KDAC8 was produced in E. coli BL21 (DE3); His6-SUMO (N, cleaved yes); made in house; host or cells: E. coli BL21 (DE3), pET14b vector; conditions: for ΔTm at 100 µM: read-out: ΔTm (thermal stabilization of KDAC8)
# Procedure: By utilizing a QuantStudio™ 5 real-time quantitative polymerase chain reaction (qPCR) system (Thermo Fisher Scientific), protein melting curves with SYPRO® orange as fluorescence dye were generated. […] A DMSO control without ligand was utilized as a positive control. After mixing the components, the samples were incubated at 30°C for 1 h in the real-time qPCR system to assure binding equilibrium. […] The fluorescence signal was plotted against the temperature. The melting point was calculated as the point of inflection of the first derivative using protein thermal shift software (Thermo Fisher Scientific).
# human KDAC8 [4] = molecular target: T1, human KDAC8; experiment: Two-step endpoint KDAC8 activity assay, IC50 determination; format: biochemical; design: full-length human KDAC8 was produced in E. coli BL21 (DE3); His6-SUMO (N, cleaved yes); made in house; host or cells: E. coli BL21 (DE3), pET14b vector; conditions: 20 µmol/L Boc-Lys(TFA)-AMC, stopped with SATFMK, trypsin development, n = 3
# trypsin = experiment: Trypsin inhibition counter-assay (Bz-Arg-PNA); format: biochemical; conditions: 0.1 mg/mL trypsin, 400 µmol/L Bz-Arg-PNA, any applied concentration
# Procedure: where EA stands for the enzyme activity at a given ligand concentration x, Emax and E0 are the enzyme activities without ligand and under complete inhibition, respectively. IC50 is the ligand concentration at which half of the enzyme activity is inhibited and h is a measure of the steepness of the dose-response curve. […] All solutions were pre-incubated at 30°C. The two-step IC50 determination has been described previously. In short: KDAC8 was incubated with the respective ligands, and the enzymatic reaction was started by the addition of 20 µmol/L Boc-Lys(TFA)-AMC substrate (Bachem). […]. In this endpoint assay, the fluorescence signal was correlated to […] and normalized with a positive control without ligand. Data analysis was performed as described above. For IC50 determination due to trypsin inhibition, the basic IC50 procedure was identical. In the assay 0.1 mg/mL trypsin and 400 µmol/L Bz-Arg-PNA (Bachem) were used. The change in substrate absorbance was recorded in a microplate reader (Spark®, Tecan) at 405 nm. In this endpoint assay, the absorbance signal was correlated to […] and normalized with a positive control without ligand. Data analysis was performed as described above.
# human KDAC8 [5] = molecular target: T1, human KDAC8; experiment: Progress curves of continuous KDAC8 assay: relative KDAC8 activity after 5,000 s (stabilization curves); conditions: ratio of late-stage to early-stage slopes, normalized to free KDAC8
# Procedure: The measurements were carried out in a black 96-well half-area microtiter plate (Greiner) at 30°C in assay buffer (see above). The respective ligand was diluted in Master Mix (see above) and binding kinetics were initiated by the addition of 10 nmol/L KDAC8. […] All solutions were pre-incubated at 30°C. Slopes were calculated for the early-stage (1,000 s to 2,000 s) and the late-stage (5,000 s to 6,000 s) using linear regression. The relative KDAC8 activity in the presence of different inhibitor concentrations was calculated as the ratio of the late-stage and early-stage slopes and normalized to free KDAC8 enzyme.
# KDAC11 = conditions: cited from earlier work
# [6] = 100 µmol/L inhibitor, 12 µmol/L KDAC8, 1 h at 30°C before melting
SMILES,"Km (human KDAC8 [1]; assay buffer (low salt), 10 nmol/L KDAC8, 30°C)",kcat (human KDAC8 [1]; assay buffer),IC50 (human KDAC8 [2]),Inhibition mode (human KDAC8 [2]),Time-dependence of IC50 values (human KDAC8 [2]),ΔTm (thermal stabilization of KDAC8) (human KDAC8 [3]; [6]),ΔTm at 100 µM (human KDAC8 [3]; [6]),IC50 (human KDAC8 [4]),Effect on trypsin activity (trypsin),"Stabilization of KDAC8 activity (relative KDAC8 activity after 5,000 s vs free enzyme) (human KDAC8 [5])",Time to establish binding equilibrium with KDAC8 (human KDAC8 [2]; deduced from unchanged IC50 at shortest pre-incubation time),ΔTm at 100 µM (human KDAC8 [3]),Stabilization of KDAC11 (KDAC11)
"Cc1cc(=O)oc2cc(NC(=O)[C@H](CCCCNC(=O)C(F)(F)F)NC(=O)OC(C)(C)C)ccc12 [Boc-Lys(TFA)-AMC, tert-butyl N-[(1S)-1-[(4-methyl-2-oxo-chromen-7-yl)carbamoyl]-5-[(2,2,2-trifluoroacetyl)amino]pentyl]carbamate]",8.9 ± 1.6 µM,0.034 ± 0.002 s⁻¹,–,–,–,–,–,–,–,–,–,–,–
"CCN1C(=O)C=CC1=O [NEM, N-ethylmaleimide]",–,–,320 ± 90 nM,Covalent inactivation,significant changes in IC50-values over time,4.58 ± 0.26 °C,4 to 5 °C,780 ± 180 nM,no effect against trypsin,do not preserve the relative KDAC8 activity,–,–,–
"O=C(CCCCCCC(=O)Nc1ccccc1)NO [SAHA, suberoylanilide hydroxamic acid]",–,–,–,Fast reversible binding,no time-dependent change in IC50-values,–,–,–,–,–,less than 5 min,8.5 ± 0.06 °C,capable of stabilizing KDAC11
"O=[N+]([O-])c1ccc(CCS(=O)(=O)c2nc(Cl)ns2)cc1 [TJ-19-29, 3-chloro-5-[2-(4-nitrophenyl)ethanesulfonyl]-1,2,4-thiadiazole]",–,–,30 ± 9 nM,Covalent inactivation,–,4.4 ± 0.3 °C,4 to 5 °C,120 ± 40 nM,no effect against trypsin,do not preserve the relative KDAC8 activity,–,–,–
"CC(/C=C/C(=O)NO)=C\[C@H](C)C(=O)c1ccc(N(C)C)cc1 [TSA, trichostatin A]",–,–,–,Fast reversible binding,–,–,–,–,–,–,–,11.96 ± 0.06 °C,–

# Source: publication PMC10344891, “Continuous enzyme activity assay for high-throughput classification of histone deacetylase 8 inhibitors” (Exploration of Targeted Anti-tumor Therapy, 2023)
